Results reported in patent US20210278391A1, “COMPOSITIONS AND METHODS FOR TREATING CARDIOVASCULAR AND METABOLIC CONDITIONS” (The Regents of the University of California, priority 2017, published 2021).

Details: male, C57BL/6, mouse, in vivo, ip
Method: Ob/ob mice or wildtype C57BL/6 male mice were purchased from Jackson Labs or SLAC Laboratory Animals Company Limited, Shanghai, China. PP2Cm germ-line knockout mice were generated as previously described (Lu et al. (2009) J Clin Invest 119:1678-1687). All animals were housed at 22° C. with a 12-hour light, 12-hour dark cycle with free access to water and standard chow. BCAA in water was prepared by BCAA powders. Isocaloric high protein diet (TD90018) and low protein diet (TD90016) were purchased from Envigo Teklad Diet. For glucose or insulin tolerance test, mice were fasted for 6 hours and injected (intraperitoneally) with insulin or D-glucose. […] For BCAA tolerance test, ob/ob mice at age of 10 weeks or high fat diet induced obese (DIO) mice were used. To induce DIO, high fat diet (60% kcal % fat) or control diet (10% kcal % fat) (Research Diets, New Brunswick, N.J.) was used to feed mice starting at 6 weeks of age and continued for 8 weeks. […] Plasma samples were collected at 0, 30, 60, 120 minute points to measure BCAA/BCKA levels. […]
Blood samples were collected at 0, 30, 60, 120 minute points as indicated. Plasma was then collected and BCAA/BCKA was measured.

In the case of `CC(C)C[C@H](N)C(=O)O` [leucine], the “time point of recovery to near the basal level” value is reported as 1 h.
